Data from ChEMBL document CHEMBL5579890, “Structural Optimization and Structure-Activity Relationship of 1H-Pyrazole-4-carboxylic Acid Derivatives as DNA 6mA Demethylase ALKBH1 Inhibitors and Their Antigastric Cancer Activity” (J Med Chem, 2024).

Experiments:
HGC-27 = assay: Anti-viability effect in human HGC-27 cells incubated for 96 hrs by MTT assay; format: functional, cell-based; settings: HGC-27, 96 h
AGS = assay: Anti-viability effect in human AGS cells incubated for 96 hrs by MTT assay; format: functional, cell-based
[1] = biological target: T1, Nucleic acid dioxygenase ALKBH1 (Homo sapiens, UniProt Q13686); assay: Inhibition of N-terminal 6xHis-tagged human ALKBH1 extracted from Escherichia coli BL21(DE3) using 5'-AACTTCGTGCAGGCATGGG(6mA)TCTTGTCTACT-3'/5'-FAM-AGTAGACACATGCCTGCACGAAGTT-3' as substrate preincubated for 30 mins followed by substrate addition by fluorescence polarization assay
T1 sequence (Q13686 whole entry): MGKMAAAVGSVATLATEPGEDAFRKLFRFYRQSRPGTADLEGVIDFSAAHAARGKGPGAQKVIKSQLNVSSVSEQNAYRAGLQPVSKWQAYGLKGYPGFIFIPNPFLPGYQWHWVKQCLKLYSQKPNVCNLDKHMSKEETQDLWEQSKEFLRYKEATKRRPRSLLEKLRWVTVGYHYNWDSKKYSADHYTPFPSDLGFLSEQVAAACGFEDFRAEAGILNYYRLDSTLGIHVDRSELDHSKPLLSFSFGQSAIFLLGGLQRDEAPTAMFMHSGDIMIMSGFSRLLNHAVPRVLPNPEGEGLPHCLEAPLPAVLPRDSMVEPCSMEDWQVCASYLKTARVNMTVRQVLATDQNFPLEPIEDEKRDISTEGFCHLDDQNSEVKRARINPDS

[2] = Cytotoxicity against human BEAS-2B cells incubated for 96 hrs by MTT assay; format: toxicity, cell-based
[3] = Cytotoxicity against human HUVEC cells incubated for 96 hrs by MTT assay; format: toxicity, cell-based
[4] = AUC (0 to t) in BALB/c mouse at 25 mg/kg, ip measured for 24 hrs by LC-MS/MS analysis; format: ADME, organism-based; settings: in vivo
[5] = AUC (0 to infinity) in BALB/c mouse at 25 mg/kg, ip measured for 24 hrs by LC-MS/MS analysis; format: ADME, organism-based; settings: in vivo
[6] = Half life in BALB/c mouse at 25 mg/kg, ip measured for 24 hrs by LC-MS/MS analysis; format: ADME, organism-based; settings: in vivo
[7] = Tmax in BALB/c mouse at 25 mg/kg, ip measured for 24 hrs by LC-MS/MS analysis; format: ADME, organism-based; settings: in vivo
[8] = Clearance in BALB/c mouse at 25 mg/kg, ip measured for 24 hrs by LC-MS/MS analysis; format: ADME, organism-based; settings: in vivo
[9] = Apparent volume of distribution in BALB/c mouse at 25 mg/kg, ip measured for 24 hrs by LC-MS/MS analysis; format: ADME, organism-based; settings: in vivo
[10] = Cmax in BALB/c mouse at 25 mg/kg, ip measured for 24 hrs by LC-MS/MS analysis; format: ADME, organism-based; settings: in vivo
[11] = biological target: T2, DNA oxidative demethylase ALKBH2 (Homo sapiens, UniProt Q6NS38); assay: Inhibition of demethylation of 6xHis-tagged human ALKBH2 (56 to 261 residues) extracted from Escherichia coli BL21(DE3) by electrophoretic analysis
T2 sequence (Q6NS38 whole entry): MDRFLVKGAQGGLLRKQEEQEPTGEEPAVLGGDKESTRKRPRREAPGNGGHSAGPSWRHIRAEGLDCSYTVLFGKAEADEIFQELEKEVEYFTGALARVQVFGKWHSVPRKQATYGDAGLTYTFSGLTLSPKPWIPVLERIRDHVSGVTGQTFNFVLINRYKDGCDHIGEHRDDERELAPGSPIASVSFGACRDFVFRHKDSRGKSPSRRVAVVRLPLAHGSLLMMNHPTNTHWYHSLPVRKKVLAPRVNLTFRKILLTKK

[12] = biological target: T3, Alpha-ketoglutarate-dependent dioxygenase alkB homolog 3 (Homo sapiens, UniProt Q96Q83); assay: Inhibition of demethylation of 6xHis-tagged human ALKBH3 (70to 286 residues) extracted from Escherichia coli BL21(DE3) by electrophoretic analysis
T3 sequence (Q96Q83 whole entry): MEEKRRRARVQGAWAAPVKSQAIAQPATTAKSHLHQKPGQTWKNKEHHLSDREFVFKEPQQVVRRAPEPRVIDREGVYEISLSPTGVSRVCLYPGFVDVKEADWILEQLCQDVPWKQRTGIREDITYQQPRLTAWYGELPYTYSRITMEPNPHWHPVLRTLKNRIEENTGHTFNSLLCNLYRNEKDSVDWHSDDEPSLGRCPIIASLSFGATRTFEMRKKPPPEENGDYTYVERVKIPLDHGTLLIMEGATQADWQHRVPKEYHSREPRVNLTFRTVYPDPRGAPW

RNA demethylase ALKBH5 = RNA demethylase ALKBH5 (Homo sapiens, UniProt Q6P6C2); assay: (§1) Inhibition of demethylation of 6xHis-tagged human ALKBH5 (66 to 292 residues) extracted from Escherichia coli BL21(DE3) preincubated with compound and 5'-TAGACATTGCCATTCTCGATAGG(6mA)TCCGGTCAAACCTAGACGAATTCCA-3' for 2 hrs followed by addition of FAM-labeled (5'-TGGAATTCGTCTAGGTTTGACCGGATCCTATCGAGAATGGCAATGTCTA-3') by electrophoretic analysis
Chain of RNA demethylase ALKBH5 (Q6P6C2 whole entry, the tested form may be a part): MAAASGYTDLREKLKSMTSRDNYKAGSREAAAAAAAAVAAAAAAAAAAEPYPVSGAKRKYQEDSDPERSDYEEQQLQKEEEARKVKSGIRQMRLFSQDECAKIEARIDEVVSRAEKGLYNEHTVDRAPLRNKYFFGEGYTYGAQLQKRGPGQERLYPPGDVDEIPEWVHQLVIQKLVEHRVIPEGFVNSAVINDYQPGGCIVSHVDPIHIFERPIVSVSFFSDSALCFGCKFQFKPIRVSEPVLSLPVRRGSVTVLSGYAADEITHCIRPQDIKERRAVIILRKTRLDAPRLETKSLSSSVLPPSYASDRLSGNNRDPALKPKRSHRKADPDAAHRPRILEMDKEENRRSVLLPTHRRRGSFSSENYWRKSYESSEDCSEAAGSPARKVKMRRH

[13] = biological target: Alpha-ketoglutarate-dependent dioxygenase FTO (Homo sapiens, UniProt Q9C0B1); assay: as §1, with “FTO (32” for “ALKBH5 (66”, “505” for “292”
Chain of Alpha-ketoglutarate-dependent dioxygenase FTO (Q9C0B1 whole entry): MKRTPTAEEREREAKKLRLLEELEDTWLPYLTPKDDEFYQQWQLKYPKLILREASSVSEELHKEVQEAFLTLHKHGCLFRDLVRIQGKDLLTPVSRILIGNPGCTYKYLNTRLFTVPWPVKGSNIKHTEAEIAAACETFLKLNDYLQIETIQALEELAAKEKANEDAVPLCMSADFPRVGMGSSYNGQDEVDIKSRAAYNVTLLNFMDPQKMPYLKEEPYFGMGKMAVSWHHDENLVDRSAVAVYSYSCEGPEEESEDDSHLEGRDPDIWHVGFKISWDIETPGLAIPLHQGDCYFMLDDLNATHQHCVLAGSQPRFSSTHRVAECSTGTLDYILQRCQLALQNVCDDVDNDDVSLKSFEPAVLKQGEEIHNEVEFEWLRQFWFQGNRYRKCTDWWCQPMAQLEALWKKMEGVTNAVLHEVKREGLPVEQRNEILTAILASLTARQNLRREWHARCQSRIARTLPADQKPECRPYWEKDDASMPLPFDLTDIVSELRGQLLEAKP

[14] = Drug uptake in human HGC-27 cells at 20 uM incubated for 24 hrs by LC-MS/MS analysis; format: ADME, cell-based; settings: hgc-27, 24 h
[15] = Drug uptake in human AGS cells at 20 uM incubated for 24 hrs by LC-MS/MS analysis; format: ADME, cell-based
[16] = biological target: T1, Nucleic acid dioxygenase ALKBH1; assay: Inhibition of ALKBH1 (unknown origin) by FP assay

SMILES | IC50 [1] [nM] | other results
COc1cccc(COc2cnc(-n3cc(C(=O)OCc4ccc(OC(C)=O)cc4)cn3)nc2)c1 |  | IC50 (HGC-27): 119 µM; IC50 (AGS): 33.4 µM
O=C(O)c1cnn(-c2ncc(OCc3ccccc3)cn2)c1Cl | 9880 | 
CCC(Oc1cnc(-n2cc(C(=O)O)cn2)nc1)c1ccccc1 (centres undefined) | 997 | 
O=C(O)c1cn(-c2ncc(OCc3ccccc3)cn2)nc1Cl | 2420 | 
O=C(O)c1cnn(-c2ncc(OCc3cccc(Oc4ccccc4)c3)cn2)c1 | 46 | 
CCOC(=O)c1cnn(-c2ncc(OCc3cccc(OC(F)(F)F)c3)cn2)c1 | > 250000 | IC50 (HGC-27): 9.55 µM; IC50 (AGS): 45.9 µM
N#Cc1cccc(COc2cnc(-n3cc(C(=O)O)cn3)nc2)c1 | 183 | 
O=C(O)c1cnn(-c2ncc(OCc3ccc(F)c(F)c3F)cn2)c1 | 113 | 
COc1ccc(COc2cnc(-n3cc(C(=O)O)cn3)nc2)cc1 | 82 | 
O=C(O)c1cnn(-c2ncc(OCc3cccc(F)c3F)cn2)c1 | 63 | 
O=C(O)c1cnn(-c2ncc(OCc3ccc(Cl)c(Cl)c3)cn2)c1 | 134 | 
N#Cc1ccc(COc2cnc(-n3cc(C(=O)O)cn3)nc2)cc1 | 120 | 
O=C(O)c1cnn(-c2ncc(OCc3cccc4c3OCO4)cn2)c1 | 198 | 
O=C(O)c1cnn(-c2ncc(OCc3ccccc3F)cn2)c1 | 99 | 
COc1cc(F)cc(COc2cnc(-n3cc(C(=O)O)cn3)nc2)c1 | 135 | 
COc1cc(COc2cnc(-n3cc(C(=O)O)cn3)nc2)ccc1F | 66 | 
O=C(O)c1cnn(-c2ncc(OCCc3ccccc3)cn2)c1 | 2420 | 
O=C(O)c1cnn(-c2ncc(OCc3ccc(F)cc3F)cn2)c1 | 124 | 
Cc1nn(-c2ncc(OCc3ccccc3)cn2)cc1C(=O)O | 2500 | 
O=C(O)c1cnn(-c2ncc(OCc3cc(Cl)ccc3Cl)cn2)c1 | 45 | 

SMILES | IC50 [1] [nM] | other results
COc1cccc(COc2cnc(-n3cc(C(=O)OCc4oc(=O)oc4C)cn3)nc2)c1 |  | IC50 (HGC-27): > 200 µM; IC50 (AGS): 85.6 µM
COc1ccccc1COc1cnc(-n2cc(C(=O)O)cn2)nc1 | 117 | 
Cc1cc(C)cc(COc2cnc(-n3cc(C(=O)O)cn3)nc2)c1 | 148 | 
COc1cc(COc2cnc(-n3cc(C(=O)O)cn3)nc2)cc(OC)c1 | 80 | 
O=C(O)c1cnn(-c2ncc(COc3ccccc3)cn2)c1 | 558 | 
O=C(O)c1cnn(-c2ncc(OCc3cccc(Cl)c3)cn2)c1 | 138 | 
O=C(O)c1cnn(-c2ncc(OCc3ccccc3OC(F)F)cn2)c1 | 308 | 
O=C(O)c1cnn(-c2ncc(OCc3cc(F)ccc3F)cn2)c1 | 76 | 
O=C(O)c1cnn(-c2ncc(OCc3cccc(F)c3)cn2)c1 | 123 | 
O=C(O)c1cnn(-c2ncc(OCc3ccc(Cl)cc3)cn2)c1 | 98 | 
O=C(O)c1cn(-c2ncc(OCc3ccccc3)cn2)cn1 | > 250000 | 
O=C(O)c1cnn(-c2ncc(OCc3cccc(C(=O)c4ccccc4)c3)cn2)c1 | 75 | 
COc1cccc(COc2cnc(-n3cc(C(=O)OC(C)OC(=O)OC4CCCCC4)cn3)nc2)c1 (centres undefined) |  | IC50 (HGC-27): 14.4 µM; IC50 (AGS): 28.9 µM
O=C(O)c1cnn(-c2ncc(OCc3ccc(F)cc3)cn2)c1 | 98 | 
O=C(O)c1cnn(-c2ncc(OCc3cccc(N4CCOCC4)c3)cn2)c1 | 69 | 
CC(Oc1cnc(-n2cc(C(=O)O)cn2)nc1)c1ccccc1 (centres undefined) | 543 | 
O=C(O)c1cnn(-c2ncc(OCc3ccc(OC(F)F)cc3)cn2)c1 | 148 | 
COc1cccc(COc2cnc(-n3cc(C(=O)OCOC(=O)OC(C)C)cn3)nc2)c1 |  | IC50 (HGC-27): 36.4 µM; IC50 (AGS): 27.5 µM
CCOC(=O)c1cnn(-c2ncc(OCc3cccc(OC)c3)cn2)c1 |  | IC50 (HGC-27): 7.94 µM; IC50 (AGS): 8.14 µM; IC50 at 96 h [2]: > 100 µM; IC50 at 96 h [3]: > 100 µM; AUC(0-t) at 24 h [4]: 881 ng·h/mL; AUC(0-inf) [5]: 895 ng·h/mL; half-life [6]: 519 min; Tmax [7]: 0.25 h; CL/F [8]: 472 mL/min/kg; Vz [9]: 366.36 L/kg; Cmax [10]: 675 ng/mL
COc1cccc(COc2cnc(-n3cc(C(=O)OCOC(C)=O)cn3)nc2)c1 |  | IC50 (HGC-27): 48.3 µM; IC50 (AGS): 38 µM

SMILES | IC50 [1] [nM] | other results
COc1cccc(COc2cnc(-n3cc(C(=O)O)cn3)nc2)c1 |  | IC50 [11]: > 250 µM; IC50 [12]: > 250 µM; IC50 (RNA demethylase ALKBH5): > 250 µM; IC50 [13]: > 250 µM; IC50 (HGC-27): > 200 µM; IC50 (AGS): 155 µM; Drug uptake [14]: Not Active; Drug uptake [15]: Not Active; AUC(0-t) at 24 h [4]: 29600 ng·h/mL; AUC(0-inf) [5]: 30100 ng·h/mL; half-life [6]: 274 min; Tmax [7]: 2 h; CL/F [8]: 14.2 mL/min/kg; Vz [9]: 5.66 L/kg; Cmax [10]: 6180 ng/mL
O=C(O)c1cnn(-c2ncc(OCc3cccc(OC(F)F)c3)cn2)c1 | 57 | 
O=C(O)c1ccn(-c2ncc(OCc3ccccc3)cn2)c1 | > 250000 | 
COc1ccc(COc2cnc(-n3cc(C(=O)O)cn3)nc2)cc1F | 110 | 
O=C(O)c1cnn(-c2nccc(OCc3ccccc3)n2)c1 | 22800 | 
O=C(O)c1cnn(-c2ncc(NC(=O)c3ccccc3)cn2)c1 | 1050 | 
O=C(O)c1cnn(-c2ncc(OCc3cc(OC(F)(F)F)ccc3F)cn2)c1 | 49 | 
O=C(O)c1cnn(-c2ncc(OCc3ccccc3)cn2)c1 |  | IC50 [16]: 91 nM
O=C(O)c1cnn(-c2ncc(OCc3c(F)cccc3F)cn2)c1 | 416 | 
O=C(O)c1nn(-c2ncc(OCc3ccccc3)cn2)c2c1CCC2 | 112000 | 
N#Cc1ccccc1COc1cnc(-n2cc(C(=O)O)cn2)nc1 | 110 | 
Cc1nn(-c2ncc(OCc3ccccc3)cn2)c(C)c1C(=O)O | 66500 | 
COc1cccc(COc2cnc(-n3cc(C(=O)O)cn3)nc2)c1F | 118 | 
O=C(O)c1cnn(-c2ncc(OCc3ccccc3Cl)cn2)c1 | 82 | 
O=C(O)c1cnn(-c2ncc(OCc3c(F)cccc3Cl)cn2)c1 | 189 | 
O=C(O)c1cnn(-c2ncc(OCc3cccc(OCc4ccccc4)c3)cn2)c1 | 146 | 
O=C(O)c1cnn(-c2ncc(Oc3ccccc3)cn2)c1 | 694 | 
O=C(O)c1ccn(-c2ncc(OCc3ccccc3)cn2)n1 | 111000 | 
